Some test systems named below: A498 renal; CAKI-1 renal; CCRF-CEM leukemia; HCT-116 colon; M14 melanoma; NCI-H460 lung; OVCAR-5 ovarian; SF-295 CNS; SF-539 CNS; UO-31 renal.
Experiment in all cases: DTP human tumour cell line panel, 48 h

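Cultured in 96-well plates, cells were exposed to test compound for 48 hours across five concentrations. Abbreviation: GI50, concentration required for 50% inhibition of growth. Definition used: TGI = concentration required for complete inhibition of growth.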 Bounds are passed on as bounds.

As to `NC(=O)c1cc(N2CC2)c([N+](=O)[O-])cc1[N+](=O)[O-]`, the TGI was 200 µM in the experiment with A498 renal; > 200 µM in the experiment with CAKI-1 renal; > 200 µM with CCRF-CEM leukemia; > 200 µM in the experiment on HCT-116 colon; > 200 µM in the experiment on M14 melanoma; > 77 µM in the experiment with NCI-H460 lung. For the same compound, the TGI with OVCAR-5 ovarian, in the experiment with SF-295 CNS, in the experiment with SF-539 CNS and in the experiment on UO-31 renal was > 200 µM each time. Further, the GI50 with CAKI-1 renal, in the experiment with CCRF-CEM leukemia, in the experiment with HCT-116 colon, in the experiment on M14 melanoma, in the experiment on OVCAR-5 ovarian and with SF-295 CNS was > 200 µM each time. Besides, the GI50 in the experiment on SF-539 CNS and in the experiment on UO-31 renal was > 200 µM each time.

Turning to `CCCc1nn(C)c2c(=O)[nH]c(-c3cc(S(=O)(=O)N4CCN(C)CC4)ccc3OCC)nc12`, the GI50 in the experiment with A498 renal is 25.6 µM; in the experiment on CAKI-1 renal, > 100 µM; in the experiment on CCRF-CEM leukemia, > 100 µM; with HCT-116 colon it was > 100 µM; in the experiment with M14 melanoma it was > 100 µM; with NCI-H460 lung, > 100 µM. For the same compound, the GI50 in the experiment on OVCAR-5 ovarian, in the experiment on SF-295 CNS, with SF-539 CNS and in the experiment on UO-31 renal was > 100 µM in each case. Also, the TGI in the experiment on A498 renal, in the experiment on CAKI-1 renal, with CCRF-CEM leukemia, in the experiment with HCT-116 colon, in the experiment with M14 melanoma and in the experiment with NCI-H460 lung was > 100 µM throughout. In addition, the TGI in the experiment with OVCAR-5 ovarian, with SF-295 CNS, with SF-539 CNS and with UO-31 renal was > 100 µM in each case.

For the compound `CC(=O)O.CN1[CH-]N(Cc2ccc(C#N)cc2)c2ccccc21.[Ag+]`, the GI50 with A498 renal was > 100 µM; in the experiment on CAKI-1 renal it was 18.2 µM; in the experiment on CCRF-CEM leukemia, 22.2 µM; in the experiment on HCT-116 colon it was 18.5 µM; in the experiment on M14 melanoma it was 16.9 µM; in the experiment with NCI-H460 lung, > 100 µM. In addition, the GI50 with OVCAR-5 ovarian was 58.4 µM; with SF-295 CNS it was 82.3 µM; in the experiment with SF-539 CNS, 43.7 µM; in the experiment on UO-31 renal, 16.2 µM. The TGI in the experiment on A498 renal is > 100 µM; in the experiment with CAKI-1 renal, 33.9 µM; in the experiment on CCRF-CEM leukemia, 61.1 µM; in the experiment with HCT-116 colon it was 42.4 µM; in the experiment on M14 melanoma, 32.7 µM; in the experiment with NCI-H460 lung, > 100 µM. Moreover, the TGI in the experiment with OVCAR-5 ovarian is > 100 µM; in the experiment on SF-295 CNS it was > 100 µM; in the experiment on SF-539 CNS it was > 100 µM; in the experiment on UO-31 renal, 30.3 µM.

Regarding `O=C1c2ccccc2C(=O)N1CCc1ncc(-c2ccccc2)[nH]1`, the TGI with A498 renal, in the experiment with CAKI-1 renal, with CCRF-CEM leukemia, in the experiment on HCT-116 colon, in the experiment with M14 melanoma and with NCI-H460 lung was > 100 µM each time. For the same compound, the TGI in the experiment on OVCAR-5 ovarian, in the experiment with SF-295 CNS, in the experiment with SF-539 CNS and in the experiment with UO-31 renal was > 100 µM in each case.

For `COc1ccc(C(=O)C2CCC(C(=O)O)C2)cc1` (stereo not drawn), the concentration for total growth inhibition (TGI) with A498 renal, with CAKI-1 renal, with CCRF-CEM leukemia, in the experiment on HCT-116 colon, in the experiment with M14 melanoma and with NCI-H460 lung was > 100 µM throughout. In addition, the concentration for total growth inhibition (TGI) in the experiment with OVCAR-5 ovarian, in the experiment on SF-295 CNS, in the experiment on SF-539 CNS and with UO-31 renal was > 100 µM throughout.

Take `COc1cc(-c2nn(-c3cccc(NC(=O)Nc4ccc(Cl)c(C(F)(F)F)c4)c3)cc2-c2ccncc2)ccc1Cl`: the GI50 with A498 renal was 0.837 µM; with CAKI-1 renal, 0.992 µM; in the experiment with CCRF-CEM leukemia it was 0.979 µM; with HCT-116 colon, 1.17 µM; with M14 melanoma, 1.08 µM; with NCI-H460 lung it was 1.11 µM. The GI50 was 3.09 µM in the experiment on OVCAR-5 ovarian, 0.84 µM in the experiment with SF-295 CNS, 1.66 µM in the experiment on SF-539 CNS and 0.865 µM in the experiment on UO-31 renal. Moreover, the concentration for total growth inhibition (TGI) was 6.97 µM in the experiment on A498 renal; 4.72 µM with CAKI-1 renal; > 32.5 µM in the experiment with CCRF-CEM leukemia; 4.56 µM in the experiment with HCT-116 colon; 3.71 µM in the experiment with M14 melanoma; 4.79 µM in the experiment with NCI-H460 lung. Besides, the total growth inhibition concentration (TGI) with OVCAR-5 ovarian worked out at 11 µM; in the experiment on SF-295 CNS, 2.54 µM; with SF-539 CNS, 6.34 µM; in the experiment on UO-31 renal, 4.1 µM.

As for `COc1ccc2cc(-c3cnc4nonc4n3)ccc2c1`, the GI50 in the experiment with A498 renal was 1.15 µM; in the experiment with CAKI-1 renal, 2.83 µM; with CCRF-CEM leukemia, 1.62 µM; with HCT-116 colon, 2.12 µM; in the experiment on M14 melanoma, 1.91 µM; with NCI-H460 lung, 11 µM. Further, the GI50 with OVCAR-5 ovarian is 6 µM; with SF-295 CNS, 2.08 µM; in the experiment with SF-539 CNS, 0.825 µM; in the experiment with UO-31 renal, 3.23 µM. In addition, the concentration for total growth inhibition (TGI) was 8.79 µM with A498 renal; > 100 µM with CAKI-1 renal; > 100 µM with CCRF-CEM leukemia; > 100 µM with HCT-116 colon; 6.38 µM with M14 melanoma; > 100 µM in the experiment on NCI-H460 lung. Besides, the total growth inhibition concentration (TGI) was > 100 µM with OVCAR-5 ovarian, > 100 µM in the experiment on SF-295 CNS, 4.88 µM in the experiment on SF-539 CNS and > 100 µM in the experiment with UO-31 renal.

`Cc1ccc(OP(=O)(Oc2ccc(C)cc2)N2C=Cc3ccccc3C2C#N)cc1` (stereo not drawn): the total growth inhibition concentration (TGI) with A498 renal, with CAKI-1 renal, in the experiment on CCRF-CEM leukemia, in the experiment with HCT-116 colon, with M14 melanoma and in the experiment with NCI-H460 lung was > 100 µM throughout. Besides, the concentration for total growth inhibition (TGI) with OVCAR-5 ovarian, in the experiment with SF-295 CNS, in the experiment with SF-539 CNS and in the experiment on UO-31 renal was > 100 µM in each case.

Regarding `OC1CC2CCC(C1)N2CCCN1c2ccccc2Sc2ccc(Cl)cc21` (stereo not drawn), the TGI in the experiment with A498 renal amounted to 5.62 µM; with CAKI-1 renal, 9.47 µM; in the experiment on CCRF-CEM leukemia it was 4.23 µM; in the experiment with HCT-116 colon, 3.64 µM; with M14 melanoma, 3.56 µM; in the experiment on NCI-H460 lung, 3.25 µM. Further, the TGI with OVCAR-5 ovarian came to 8.01 µM; with SF-295 CNS, 3.67 µM; in the experiment with SF-539 CNS it was 3.89 µM; with UO-31 renal, 7.09 µM.

What is called TGI is the concentration giving total growth inhibition. As a reminder, the GI50 is the concentration giving 50% growth inhibition.

The values are drawn from PubChem BioAssay (NCI).
